{"source": "patent US20190167576A1", "about": "“USE OF HIGH AFFINITY MONOCLONAL ANTIBODY PRODUCT BINDERS TO INCREASE THE DURATION OF ACTION OF THERAPEUTIC MONOCLONAL ANTIBODY PRODUCTS IN A BIOLOGIC TISSUE” (priority 2016, published 2019)", "target": "monoclonal antibody products", "conditions": "binding to monoclonal antibody products; read-out: dissociation constant (KD)"}
{"smiles": "Nc1cccc(Nc2nc(NCCO)nc(NCC(O)CNc3nc(NCCO)nc(Nc4cccc(N)c4)n3)n2)c1", "note": "[Compound 1, 1,3-bis({4-[(3-aminophenyl)amino]-6-[(2-hydroxyethyl)amino]-1,3,5-triazin-2-yl}amnio)propan-2-ol]", "values": [{"measurement": "Kd", "value": "< 1", "unit": "µM"}]}
